Test results: patent US20030152628A1, “Dual release formulation comprising levodopa ethyl ester and a decarboxylase inhibitor in an immediate-release layer with levodopa ethyl ester in a controlled release core” (priority 2001, published 2003)
Converted amounts (≈) assume the structure as drawn.

Tests used:
[1] = Solubility at ˜22-24° C. versus pH; assay type: physicochemical
Description: However, carbidopa and LDEE, examples of two active materials in the composition of the present invention, have different chemical and physical properties and contrasting solubility characteristics especially in acid conditions, i.e., in the gastrointestinal tract (see Table 1).

[2] = Solubility and stability properties of the active materials

Row | Solubility ([1]; pH 1.0) [mg/mL] | Solubility ([1]; pH 5.0) [mg/mL] | stability at room temperature ([2]; kept under refrigeration (2-8° C.)) | solubility in water [2] | SMILES | sensitivity to moisture / hydrolysis [2]
1 | 2200 (≈ 9770 mM) | 1700 (≈ 7550 mM) | not stable at room temperature | – | CCOC(=O)[C@@H](N)Cc1ccc(O)c(O)c1 [LDEE, levodopa ethyl ester] | highly sensitive to moisture, undergoes hydrolysis easily
2 | – | – | – | slightly soluble | C[C@@](Cc1ccc(O)c(O)c1)(NN)C(=O)O [Carbidopa, carbidopa, reference compound] | –
